Reference: PubChem BioAssay (NCI)
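Dose response: 5 concentrations. Exposure: 48 h. Format: 96-well plates. Endpoint: linear interpolation; highest concentration if not reached. At the TGI there is no net growth.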

Assays:
Assay in all cases: NCI-60 cell line screen, 48 h
HOP-62 NSCLC = system: HOP-62 NSCLC
A549 NSCLC = system: A549 NSCLC
SK-MEL-28 melanoma = system: SK-MEL-28 melanoma
U251 CNS = system: U251 CNS
OVCAR-8 ovarian = system: OVCAR-8 ovarian
MDA-MB-435 = system: MDA-MB-435
RPMI-8226 leukemia = system: RPMI-8226 leukemia
EKVX NSCLC = system: EKVX NSCLC
SR leukemia = system: SR leukemia
NCI-H460 lung = system: NCI-H460 lung
SK-OV-3 ovarian = system: SK-OV-3 ovarian
MCF7 breast = system: MCF7 breast
COLO 205 colon = system: COLO 205 colon
UACC-62 melanoma = system: UACC-62 melanoma
IGROV1 ovarian = system: IGROV1 ovarian
HCT-116 colon = system: HCT-116 colon
CAKI-1 renal = system: CAKI-1 renal
MDA-MB-231 breast = system: MDA-MB-231 breast
TK-10 renal = system: TK-10 renal
786-0 renal = system: 786-0 renal
M14 melanoma = system: M14 melanoma
NCI/ADR-RES ovarian = system: NCI/ADR-RES ovarian
MDA-N = system: MDA-N
OVCAR-3 ovarian = system: OVCAR-3 ovarian
K-562 leukemia = system: K-562 leukemia
HS 578T breast = system: HS 578T breast
OVCAR-4 ovarian = system: OVCAR-4 ovarian
SF-539 CNS = system: SF-539 CNS
SW-620 colon = system: SW-620 colon
MOLT-4 leukemia = system: MOLT-4 leukemia
UO-31 renal = system: UO-31 renal
SK-MEL-5 melanoma = system: SK-MEL-5 melanoma
BT-549 breast = system: BT-549 breast
OVCAR-5 ovarian = system: OVCAR-5 ovarian
HOP-92 NSCLC = system: HOP-92 NSCLC
T-47D breast = system: T-47D breast
SNB-75 CNS = system: SNB-75 CNS
HCC-2998 colon = system: HCC-2998 colon
RXF 393 renal = system: RXF 393 renal
NCI-H226 lung = system: NCI-H226 lung
HL-60(TB) leukemia = system: HL-60(TB) leukemia
SF-268 CNS = system: SF-268 CNS
NCI-H522 lung = system: NCI-H522 lung
CCRF-CEM leukemia = system: CCRF-CEM leukemia
SN12C renal = system: SN12C renal
HT29 colon = system: HT29 colon
SK-MEL-2 melanoma = system: SK-MEL-2 melanoma
ACHN renal = system: ACHN renal
SF-295 CNS = system: SF-295 CNS
NCI-H23 lung = system: NCI-H23 lung
KM12 colon = system: KM12 colon
UACC-257 melanoma = system: UACC-257 melanoma
SNB-19 CNS = system: SNB-19 CNS
HCT-15 colon = system: HCT-15 colon
DU-145 prostate = system: DU-145 prostate
LOX IMVI melanoma = system: LOX IMVI melanoma
PC-3 prostate = system: PC-3 prostate
MALME-3M melanoma = system: MALME-3M melanoma
A498 renal = system: A498 renal

Cc1cccc(C)c1NC(=O)C(=O)C(c1ccccc1Cl)S(=O)(=O)Cc1ccccc1Cl (stereo not drawn)
TGI (HOP-62 NSCLC): 45.4 µM | TGI (A549 NSCLC): > 100 µM | TGI (SK-MEL-28 melanoma): > 100 µM | TGI (U251 CNS): > 100 µM | TGI (OVCAR-8 ovarian): > 69.6 µM | TGI (MDA-MB-435): > 100 µM | TGI (RPMI-8226 leukemia): > 100 µM | TGI (EKVX NSCLC): > 100 µM | TGI (SR leukemia): > 100 µM | TGI (NCI-H460 lung): > 100 µM | TGI (SK-OV-3 ovarian): > 61 µM | TGI (MCF7 breast): > 100 µM | TGI (COLO 205 colon): > 100 µM | TGI (UACC-62 melanoma): > 100 µM | TGI (IGROV1 ovarian): > 100 µM | TGI (HCT-116 colon): > 100 µM | TGI (CAKI-1 renal): > 100 µM | TGI (MDA-MB-231 breast): > 73.4 µM | TGI (TK-10 renal): > 100 µM | TGI (786-0 renal): > 71.7 µM | TGI (M14 melanoma): > 100 µM | TGI (NCI/ADR-RES ovarian): > 100 µM | TGI (MDA-N): > 100 µM | TGI (OVCAR-3 ovarian): > 100 µM | TGI (K-562 leukemia): > 100 µM | TGI (HS 578T breast): > 100 µM | TGI (OVCAR-4 ovarian): > 100 µM | TGI (SF-539 CNS): 39.2 µM | TGI (SW-620 colon): > 100 µM | TGI (MOLT-4 leukemia): > 100 µM | TGI (UO-31 renal): > 100 µM | TGI (SK-MEL-5 melanoma): > 100 µM | TGI (BT-549 breast): > 83.5 µM | TGI (OVCAR-5 ovarian): > 100 µM | TGI (HOP-92 NSCLC): 44 µM | TGI (T-47D breast): > 100 µM | TGI (SNB-75 CNS): > 44.1 µM | TGI (HCC-2998 colon): > 100 µM | TGI (RXF 393 renal): 80.2 µM | TGI (NCI-H226 lung): > 100 µM | TGI (HL-60(TB) leukemia): 0.533 µM | TGI (SF-268 CNS): 66.6 µM | TGI (NCI-H522 lung): > 100 µM | TGI (CCRF-CEM leukemia): > 100 µM | TGI (SN12C renal): > 100 µM | TGI (HT29 colon): > 100 µM | TGI (SK-MEL-2 melanoma): > 100 µM | TGI (ACHN renal): > 100 µM | TGI (SF-295 CNS): > 75.2 µM | TGI (NCI-H23 lung): > 76.9 µM | TGI (KM12 colon): > 100 µM | TGI (UACC-257 melanoma): > 100 µM | TGI (SNB-19 CNS): > 92 µM | TGI (HCT-15 colon): > 100 µM | TGI (DU-145 prostate): > 100 µM | TGI (LOX IMVI melanoma): > 100 µM | TGI (PC-3 prostate): > 100 µM

c1ccc(C2(c3ccccc3)S/C(=C3/SC(c4ccccc4)(c4ccccc4)c4ccccc43)c3ccccc32)cc1
TGI (HOP-62 NSCLC): > 100 µM | TGI (A549 NSCLC): > 100 µM | TGI (SK-MEL-28 melanoma): > 100 µM | TGI (U251 CNS): > 100 µM | TGI (OVCAR-8 ovarian): > 100 µM | TGI (MDA-MB-435): > 100 µM | TGI (EKVX NSCLC): > 100 µM | TGI (SR leukemia): > 100 µM | TGI (NCI-H460 lung): > 100 µM | TGI (SK-OV-3 ovarian): > 100 µM | TGI (COLO 205 colon): > 100 µM | TGI (UACC-62 melanoma): > 100 µM | TGI (IGROV1 ovarian): > 100 µM | TGI (HCT-116 colon): > 100 µM | TGI (CAKI-1 renal): > 100 µM | TGI (MDA-MB-231 breast): > 100 µM | TGI (TK-10 renal): > 100 µM | TGI (786-0 renal): > 100 µM | TGI (MALME-3M melanoma): > 100 µM | TGI (M14 melanoma): > 100 µM | TGI (NCI/ADR-RES ovarian): > 100 µM | TGI (MDA-N): > 100 µM | TGI (OVCAR-3 ovarian): > 100 µM | TGI (K-562 leukemia): > 100 µM | TGI (HS 578T breast): > 100 µM | TGI (OVCAR-4 ovarian): > 100 µM | TGI (SF-539 CNS): > 100 µM | TGI (SW-620 colon): > 100 µM | TGI (MOLT-4 leukemia): > 100 µM | TGI (UO-31 renal): > 100 µM | TGI (SK-MEL-5 melanoma): > 100 µM | TGI (BT-549 breast): > 100 µM | TGI (OVCAR-5 ovarian): > 100 µM | TGI (HOP-92 NSCLC): > 100 µM | TGI (SNB-75 CNS): > 100 µM | TGI (A498 renal): > 100 µM | TGI (HCC-2998 colon): > 100 µM | TGI (RXF 393 renal): > 100 µM | TGI (NCI-H226 lung): > 100 µM | TGI (HL-60(TB) leukemia): > 100 µM | TGI (SF-268 CNS): > 100 µM | TGI (NCI-H522 lung): > 100 µM | TGI (CCRF-CEM leukemia): > 100 µM | TGI (SN12C renal): > 100 µM | TGI (HT29 colon): > 100 µM | TGI (SK-MEL-2 melanoma): > 100 µM | TGI (ACHN renal): > 100 µM | TGI (SF-295 CNS): > 100 µM | TGI (NCI-H23 lung): > 100 µM | TGI (KM12 colon): > 100 µM | TGI (UACC-257 melanoma): > 100 µM | TGI (SNB-19 CNS): > 100 µM | TGI (HCT-15 colon): > 100 µM | TGI (DU-145 prostate): > 100 µM | TGI (LOX IMVI melanoma): > 100 µM | TGI (PC-3 prostate): > 100 µM
